Source: patent US10899776B2, “Antiviral and antibacteria agents based on quaternary ammonium compound complexed with boric acid and its derivatives” (B-Organic Films Corp, priority 2015, dated 2021)
Like-named read-outs stand apart in the source and are kept apart here.

System: L. vannamei shrimp gene expression
Procedure: RNA is extracted using TRIzol® and the Qiagen RNeasy® Mini Kit (Qiagen, Germantown, Md., USA). Shrimp samples immersed in TRIzol® are placed in the FastPrep®-24 (MP Biomedicals LLC, Solon, Ohio, USA) and homogenized during 4° C. for 40 s pulses at 6 m/s. A volume of 200 μL of chloroform is added to a 1.5 mL RNase free tube containing the homogenate material and inverted 15 times. Samples are incubated at room temperature for 3 min before centrifuged at 8000 g for 15 min at 4° C. using the Eppendorf centrifuge. The supernatant is carefully transferred into a new 1.5 mL RNase free tube and the extraction continued following the manufacturer's protocol.
The quality and quantity of RNA are determined by the NanoDrop™ 1000 spectrophotometer (Thermo Fisher Scientific, Waltham, Mass., USA) and Bio-Rad™ (Bio-Rad, Hercules, Calif., USA) using denatured gel electrophoresis with formaldehyde and buffer MOPS 1× (Sambrook, J. 1989. in: «Molecular cloning—a laboratory manual, 2nd ed». J. Sambrook, E. F. Fritsch, T. Maniatis Eds. Cold Spring Harbor, N.Y.: Cold Spring Harbor Laboratory Press).
Microarrays are designed based on publically available gene sequences and ESTs determined from cDNA libraries representing multiple tissues of male and female L. vannamei shrimp, and/or of various physiological conditions.
In total, a length of oligonucleotides about of 61440-mer is included in this study: 39592 shrimp ESTs; 1216 Quality control spots; 112 positive control Alexa-555 dye; 80 positive control Alexa 647 dye; 20320 Unigenes; 16 astringent positive control alexa-555: 16 astringent positive control Alexa-647 dye and 88 negative control empty are submitted to the MYcroarray (University of Michigan, Chemical Engineering Department) for printing on aminosaline glass slides. The exposure and reference sample RNAs are adjusted to final volume 19 μL with oligo d(T) (2 μg/μL) and random primers. (1 μg/μL) in water molecular biology grade. The samples are incubated at 70° C. for 10 min and are then chilled in ice. The samples are mixed finally with 5× Reaction Buffer Superscript II kit (Invitrogen, Life technologies, Carlsbad Calif., USA): 25 mM MgCl2; aminoallyl-dNTP with dUTP (3:1); 0.1 M DTT and 200 U/μL Superscript II Reverse Transcriptase. The mix is incubated at 25° C. for 10 min and then at 42° C. for 2 hours. RNA hydrolysis is made with 5 μL of NaOH 1 N and 1 μL of EDTA 0.5 M. The mixture is incubated at 65° C. for 10 min, and then added 25 μL of HEPES 1 M at pH 7.5. […] The aminoallyl-DNA (aa-DNA) is purified using QIAquick™ (Qiagen, Duesseldorf, Germany). A volume of 7 μL of sodium acetate 3 M and 400 μL binding buffer supplied by the Kit are added. The mixture is allowed to stand 5 min according to the manufacturer's instructions for purification. The eluted aa-DNA is concentrated in a Vacufuge™ until dry and is resuspended in 4.5 μL of sodium bicarbonate 100 mM (pH 9.0). The reaction is conducted in darkness at room temperature overnight. The aa-DNA labeled is purified using QIAquick™ (Qiagen, Duesseldorf, Germany) and eluted with 50 uL water. The aa-DNA labeled is quantified in a Nanodrop™ 1000 spectrophotometer (Thermo Fisher Scientific, Waltham, Mass., USA).
After completely drying in a Vacufuge concentrator, the aa-DNA labeled is resuspended in hybridation mixture containing: ˜0.1 optical density units of aa-DNA labeled from each sample; SSC (5×) buffer; 0.1% SDS; 1× buffer TE. The hybridation mixture is desaturated at 94° C. for 5 min and finally at 65° C. for 30 s. The mixture is placed in the microarray slide previously placed in a chamber for microarray hybridization and covered using a RNase-free plastic coverslip (Hybrislip, Schleicher & Schuell, HS40—40×22 mm; HS22—22×22 mm via Thomas Scientific). The hybridation chamber is incubated at 42° C. overnight.
The slide is placed in a 50 mL conical tube for the first wash and a volume of 50 mL of SSC (1×) buffer and of SDS 0.05% are added for 1 min.

[1] = 2-Down regulated genes, feed 5 mg/g
[2] = 2-Up regulated genes, feed 5 mg/g
[3] = 2-fold Down-regulated genes (treated) versus all genes
[4] = 2-fold Up-regulated genes (treated) versus all genes
[5] = diets supplemented with the complex
[6] = feed 5 mg/g, 14 days, of 262 2-fold Down-regulated genes
[7] = feed 5 mg/g, 14 days, of 583 2-fold Up-regulated genes
[8] = treated vs control shrimp, 57,193 spots available to analysis

## C[N+](C)(C)CCOB1OB2OB(O1)OB1OB(O2)O1.[Cl-] [choline/pentaborate complex]
[1]
  # Enzymes, Aminoacyl-tRNA biosynthesis: 3
  # Enzymes, Ascorbate and aldarate metabolism: 2
  # Enzymes, Glycolysis/Gluconeogenesis: 3
  # Enzymes, Oxidative phosphorylation: 4
  # Enzymes, Pentose and glucuronate interconversions: 2
  # Enzymes, Pentose phosphate pathway: 5
  # Enzymes, Phenylalanine metabolism: 1
  # Enzymes, Phenylpropanoid biosynthesis: 1
  # Enzymes, Purine metabolism: 3
  # Enzymes, Starch and sucrose metabolism: 2
  # Genes, Aminoacyl-tRNA biosynthesis: 3
  # Genes, Ascorbate and aldarate metabolism: 3
  # Genes, Glycolysis/Gluconeogenesis: 3
  # Genes, Oxidative phosphorylation: 6
  # Genes, Pentose and glucuronate interconversions: 3
  # Genes, Pentose phosphate pathway: 5
  # Genes, Phenylalanine metabolism: 3
  # Genes, Phenylpropanoid biosynthesis: 3
  # Genes, Purine metabolism: 4
  # Genes, Starch and sucrose metabolism: 5
[2]
  # Enzymes, Amino sugar and nucleotide Sugar metabolism: 7
  # Enzymes, Cytochrome P450: 3
  # Enzymes, Glutathione metabolism: 5
  # Enzymes, Glycolysis: 8
  # Enzymes, Oxidative phosphorylation: 6
  # Enzymes, Pentose phosphate pathway: 4
  # Enzymes, Purine metabolism: 7
  # Enzymes, Pyruvate metabolism: 6
  # Enzymes, Valine, leucine and isoleucine degradation: 6
  # Genes, Amino sugar and nucleotide Sugar metabolism: 8
  # Genes, Cytochrome P450: 6
  # Genes, Glutathione metabolism: 7
  # Genes, Glycolysis: 8
  # Genes, Oxidative phosphorylation: 18
  # Genes, Pentose phosphate pathway: 5
  # Genes, Purine metabolism: 14
  # Genes, Pyruvate metabolism: 6
  # Genes, Valine, leucine and isoleucine degradation: 6
[3]
  Fisher's exact test GO term Extracellular region part: 5.69%
  Fisher's exact test GO term Gas transport: 2.03%
  Fisher's exact test GO term Oxygen transporter activity: 2.03%
  Fisher's exact test GO term Photoreceptor cell differentiation: 2.43%
  Fisher's exact test GO term Regulation of protein metabolic process: 10.56%
  Fisher's exact test GO term Starch metabolic process: 2.03%
  Fisher's exact test GO term Sucrose metabolic process: 2.03%
  Fisher's exact test GO term Toll-like Receptor for signaling pathway: 1.62%
  Fisher's exact test GO term Translation factor activity, nucleic acid binding: 4.47%
  Fisher's exact test GO term Transporter activity: 10.56%
  Fisher's exact test GO term extracellular region: 9.75%
  Fisher's exact test GO term extracellular space: 4.87%
[4]
  Fisher's exact test GO term Actin Cytoskeleton: 4.62%
  Fisher's exact test GO term Calcium Ion Binding: 4.25%
  Fisher's exact test GO term Cytoskeletal Protein Binding: 5.55%
  Fisher's exact test GO term Hydrogen Transport: 4.81%
  Fisher's exact test GO term Ion Transport: 8.15%
  Fisher's exact test GO term Monosaccharide Metabolic Process: 4.10%
  Fisher's exact test GO term Monovalent Inorganic Cation Transport: 5.92%
  Fisher's exact test GO term Positive Regulation of Biosynthetic Process: 3.70%
  Fisher's exact test GO term Positive Regulation of Cellular Biosynthetic Process: 3.70%
  Fisher's exact test GO term Proton Transport: 4.81%
2-fold Up-regulated, GO term 0006955, feed 5 mg/g, 14 days
  number of immune related genes that are over-expressed: at least 33
[5]
  number of modulated genes associated to Biogenesis: 59
  number of modulated genes associated to Biological regulation: 73
  number of modulated genes associated to Cellular process: 159
  number of modulated genes associated to Developmental process: 40
  number of modulated genes associated to Localization: 66
  number of modulated genes associated to Metabolic process: 166
  number of modulated genes associated to Response to stimuli: 43
  number of modulated genes associated to Signaling: 26
Feed 5 mg/g, 14 days
  number of 2-fold Up-regulated genes: 583
  number of genes with a 2-fold Down-regulated expression: 262
[6]
  Down-regulated genes in biological process Biological Regulation: 9%
  Down-regulated genes in biological process Cellular Component Organization or Biogenesis: 7%
  Down-regulated genes in biological process Cellular Process: 20%
  Down-regulated genes in biological process Developmental Process: 5%
  Down-regulated genes in biological process Localization: 8%
  Down-regulated genes in biological process Metabolic Process: 20%
  Down-regulated genes in biological process Multicellular Process: 6%
  Down-regulated genes in biological process Response to Stimulus: 5%
  Down-regulated genes in biological process Signaling: 3%
  Down-regulated genes in biological process Single-organism Process: 17%
  Down-regulated genes with molecular function Binding: 44%
  Down-regulated genes with molecular function Catalytic Activity: 40%
  Down-regulated genes with molecular function Enzyme Regulator Activity: 3%
  Down-regulated genes with molecular function Structural Molecule Activity: 4%
  Down-regulated genes with molecular function Transporter Activity: 9%
[7]
  Up-regulated genes in biological process Biological Regulation: 9%
  Up-regulated genes in biological process Cellular Component Organization or Biogenesis: 7%
  Up-regulated genes in biological process Cellular Processes: 20%
  Up-regulated genes in biological process Developmental Process: 6%
  Up-regulated genes in biological process Localization: 7%
  Up-regulated genes in biological process Metabolic Process: 18%
  Up-regulated genes in biological process Multicellular Organismal Process: 6%
  Up-regulated genes in biological process Response to Stimulus: 6%
  Up-regulated genes in biological process Signaling: 4%
  Up-regulated genes in biological process Single-organism Process: 17%
  Up-regulated genes with molecular function Binding Activity: 44%
  Up-regulated genes with molecular function Catalytic Activity: 43%
  Up-regulated genes with molecular function Structural Molecule Activity: 6%
  Up-regulated genes with molecular function Transporter Activity: 7%
[8]
  Number of spots, Expression Levels (Score) 1 to 1.5: 3,662
  Number of spots, Expression Levels (Score) 1.5 to 2: 1,984
  Number of spots, Expression Levels (Score) <−2: 1,434
  Number of spots, Expression Levels (Score) >2: 1,650
  Number of spots, Expression Levels (Score) −1.5 to −1: 3,221
  Number of spots, Expression Levels (Score) −1.5 to −2: 1,259
  Number of spots, No regulated genes (−1 to 1): 43,950
